Laboratory results reported in ChEMBL document CHEMBL3991601, “The target landscape of clinical kinase drugs” (Science, 2017).
The source made the active and inactive calls.

How the values were obtained:
[1] = biological target: Mitogen-activated protein kinase 11 (Homo sapiens, UniProt Q15759)
[2] = biological target: Serine/threonine-protein kinase PAK 2 (Homo sapiens, UniProt Q13177)
[3] = biological target: Activated CDC42 kinase 1 (Homo sapiens, UniProt Q07912)
[4] = biological target: T1, Dual specificity mitogen-activated protein kinase kinase 3 (Homo sapiens, UniProt P46734)
T1 sequence (P46734 whole entry): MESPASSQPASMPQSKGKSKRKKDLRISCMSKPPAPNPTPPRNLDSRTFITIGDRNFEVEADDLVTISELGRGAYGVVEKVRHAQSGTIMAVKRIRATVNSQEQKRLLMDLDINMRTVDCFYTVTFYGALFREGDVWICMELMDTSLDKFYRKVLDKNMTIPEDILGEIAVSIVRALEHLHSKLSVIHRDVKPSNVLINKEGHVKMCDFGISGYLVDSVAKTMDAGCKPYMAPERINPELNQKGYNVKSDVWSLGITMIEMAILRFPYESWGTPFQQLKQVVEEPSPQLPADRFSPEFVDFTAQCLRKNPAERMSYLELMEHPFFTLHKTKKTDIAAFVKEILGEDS

[5] = biological target: Protein kinase C beta type (Homo sapiens, UniProt P05771)
Sequence of Protein kinase C beta type (P05771 whole entry): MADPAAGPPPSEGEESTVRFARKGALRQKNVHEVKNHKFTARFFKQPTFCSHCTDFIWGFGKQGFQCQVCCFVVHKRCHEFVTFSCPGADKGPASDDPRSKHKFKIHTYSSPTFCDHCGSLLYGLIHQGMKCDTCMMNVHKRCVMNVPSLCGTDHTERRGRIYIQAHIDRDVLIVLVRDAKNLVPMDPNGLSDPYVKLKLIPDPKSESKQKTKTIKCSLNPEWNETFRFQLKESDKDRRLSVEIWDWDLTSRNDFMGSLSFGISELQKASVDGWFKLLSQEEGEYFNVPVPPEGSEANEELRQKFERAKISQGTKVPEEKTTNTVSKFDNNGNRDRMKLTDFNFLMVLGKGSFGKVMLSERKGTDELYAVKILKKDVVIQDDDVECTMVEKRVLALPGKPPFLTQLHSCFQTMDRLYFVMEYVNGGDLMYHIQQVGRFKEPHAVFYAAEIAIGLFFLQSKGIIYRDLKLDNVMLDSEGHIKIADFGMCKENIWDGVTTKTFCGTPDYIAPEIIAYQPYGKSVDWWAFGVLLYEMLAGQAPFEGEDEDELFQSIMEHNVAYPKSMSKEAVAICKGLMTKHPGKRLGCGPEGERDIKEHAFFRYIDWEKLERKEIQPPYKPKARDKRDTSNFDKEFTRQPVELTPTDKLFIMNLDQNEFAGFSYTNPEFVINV

[6] = biological target: T2, Serine/threonine-protein kinase Nek3 (Homo sapiens, UniProt P51956)
T2 sequence (P51956 whole entry): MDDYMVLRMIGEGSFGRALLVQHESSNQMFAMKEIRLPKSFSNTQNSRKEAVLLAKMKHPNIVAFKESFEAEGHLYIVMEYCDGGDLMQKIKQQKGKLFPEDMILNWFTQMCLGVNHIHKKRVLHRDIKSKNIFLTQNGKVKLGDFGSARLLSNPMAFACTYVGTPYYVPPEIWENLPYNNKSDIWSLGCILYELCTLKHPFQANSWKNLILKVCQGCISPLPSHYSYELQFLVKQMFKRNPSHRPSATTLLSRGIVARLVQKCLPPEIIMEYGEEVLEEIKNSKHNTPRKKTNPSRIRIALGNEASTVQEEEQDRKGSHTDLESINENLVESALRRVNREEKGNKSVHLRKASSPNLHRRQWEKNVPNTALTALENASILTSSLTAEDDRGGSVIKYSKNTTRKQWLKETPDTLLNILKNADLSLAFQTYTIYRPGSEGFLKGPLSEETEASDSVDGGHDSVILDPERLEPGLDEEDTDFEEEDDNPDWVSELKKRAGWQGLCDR

[7] = biological target: T3, Mitogen-activated protein kinase kinase kinase 3 (Homo sapiens, UniProt Q99759)
T3 sequence (Q99759 whole entry): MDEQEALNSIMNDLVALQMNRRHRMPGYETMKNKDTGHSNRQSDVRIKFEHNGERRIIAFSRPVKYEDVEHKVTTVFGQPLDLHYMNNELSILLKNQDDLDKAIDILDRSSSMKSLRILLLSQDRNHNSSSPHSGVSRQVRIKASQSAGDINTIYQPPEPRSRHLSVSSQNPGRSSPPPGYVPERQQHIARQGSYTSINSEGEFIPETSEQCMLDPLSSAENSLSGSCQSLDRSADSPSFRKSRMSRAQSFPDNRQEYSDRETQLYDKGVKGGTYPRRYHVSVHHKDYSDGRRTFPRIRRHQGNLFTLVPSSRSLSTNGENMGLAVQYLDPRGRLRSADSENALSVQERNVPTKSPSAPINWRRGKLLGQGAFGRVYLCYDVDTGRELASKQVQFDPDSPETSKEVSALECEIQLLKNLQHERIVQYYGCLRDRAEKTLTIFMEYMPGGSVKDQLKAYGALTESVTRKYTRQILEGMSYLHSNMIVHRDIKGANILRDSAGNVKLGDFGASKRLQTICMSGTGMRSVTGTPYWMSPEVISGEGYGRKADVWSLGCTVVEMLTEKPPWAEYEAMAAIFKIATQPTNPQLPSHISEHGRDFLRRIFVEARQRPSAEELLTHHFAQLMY

[8] = biological target: Myosin light chain kinase, smooth muscle (Homo sapiens, UniProt Q15746)
Sequence of Myosin light chain kinase, smooth muscle (Q15746 whole entry): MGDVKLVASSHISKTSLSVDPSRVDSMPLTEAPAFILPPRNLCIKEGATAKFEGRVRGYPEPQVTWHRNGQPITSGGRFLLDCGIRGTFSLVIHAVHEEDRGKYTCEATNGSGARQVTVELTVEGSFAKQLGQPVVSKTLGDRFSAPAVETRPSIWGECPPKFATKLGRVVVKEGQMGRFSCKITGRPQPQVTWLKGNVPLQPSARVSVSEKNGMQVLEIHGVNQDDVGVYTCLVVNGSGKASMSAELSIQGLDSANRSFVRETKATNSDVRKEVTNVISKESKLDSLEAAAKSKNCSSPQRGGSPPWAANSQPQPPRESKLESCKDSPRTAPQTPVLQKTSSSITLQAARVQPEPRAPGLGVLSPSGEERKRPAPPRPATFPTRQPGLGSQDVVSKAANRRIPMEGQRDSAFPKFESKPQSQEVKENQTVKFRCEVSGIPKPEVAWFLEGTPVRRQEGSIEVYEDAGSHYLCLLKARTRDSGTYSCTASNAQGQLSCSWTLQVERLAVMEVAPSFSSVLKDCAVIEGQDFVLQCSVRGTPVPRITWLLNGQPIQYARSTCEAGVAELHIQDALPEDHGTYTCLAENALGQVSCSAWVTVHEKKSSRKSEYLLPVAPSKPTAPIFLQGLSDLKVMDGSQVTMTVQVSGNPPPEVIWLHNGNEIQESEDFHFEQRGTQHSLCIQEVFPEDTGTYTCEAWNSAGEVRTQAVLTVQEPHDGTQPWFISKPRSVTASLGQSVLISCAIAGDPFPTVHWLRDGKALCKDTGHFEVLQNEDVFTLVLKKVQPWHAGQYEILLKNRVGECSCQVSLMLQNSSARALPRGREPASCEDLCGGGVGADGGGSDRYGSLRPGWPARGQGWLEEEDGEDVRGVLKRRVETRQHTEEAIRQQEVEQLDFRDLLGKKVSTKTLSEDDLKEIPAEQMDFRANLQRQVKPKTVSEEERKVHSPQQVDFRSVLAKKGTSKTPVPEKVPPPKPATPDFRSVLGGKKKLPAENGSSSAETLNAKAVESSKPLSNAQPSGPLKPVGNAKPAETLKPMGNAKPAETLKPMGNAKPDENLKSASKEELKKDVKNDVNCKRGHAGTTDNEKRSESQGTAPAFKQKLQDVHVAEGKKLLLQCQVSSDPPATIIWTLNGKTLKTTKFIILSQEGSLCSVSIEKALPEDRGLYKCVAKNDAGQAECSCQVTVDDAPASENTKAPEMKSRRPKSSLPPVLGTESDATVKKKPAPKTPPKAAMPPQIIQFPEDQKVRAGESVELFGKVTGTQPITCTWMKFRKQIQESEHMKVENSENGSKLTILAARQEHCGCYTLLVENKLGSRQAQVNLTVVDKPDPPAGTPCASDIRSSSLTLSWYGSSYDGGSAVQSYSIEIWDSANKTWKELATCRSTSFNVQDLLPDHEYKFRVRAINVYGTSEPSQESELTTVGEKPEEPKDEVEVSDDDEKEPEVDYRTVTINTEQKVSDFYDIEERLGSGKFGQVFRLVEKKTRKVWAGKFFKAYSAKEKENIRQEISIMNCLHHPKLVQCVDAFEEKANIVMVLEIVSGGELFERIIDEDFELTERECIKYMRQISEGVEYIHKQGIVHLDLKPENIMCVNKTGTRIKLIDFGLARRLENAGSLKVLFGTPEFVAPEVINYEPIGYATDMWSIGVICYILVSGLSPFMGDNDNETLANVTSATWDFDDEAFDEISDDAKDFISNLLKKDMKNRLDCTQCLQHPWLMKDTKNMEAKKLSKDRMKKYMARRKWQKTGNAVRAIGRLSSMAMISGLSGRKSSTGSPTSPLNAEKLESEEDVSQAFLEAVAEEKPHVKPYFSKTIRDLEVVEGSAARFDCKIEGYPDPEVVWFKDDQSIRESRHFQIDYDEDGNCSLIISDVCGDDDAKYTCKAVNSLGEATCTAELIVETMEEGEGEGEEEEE
Note: in the data inactive means no Kd found up to 30 µM.

Sequence of Activated CDC42 kinase 1 (Q07912 whole entry): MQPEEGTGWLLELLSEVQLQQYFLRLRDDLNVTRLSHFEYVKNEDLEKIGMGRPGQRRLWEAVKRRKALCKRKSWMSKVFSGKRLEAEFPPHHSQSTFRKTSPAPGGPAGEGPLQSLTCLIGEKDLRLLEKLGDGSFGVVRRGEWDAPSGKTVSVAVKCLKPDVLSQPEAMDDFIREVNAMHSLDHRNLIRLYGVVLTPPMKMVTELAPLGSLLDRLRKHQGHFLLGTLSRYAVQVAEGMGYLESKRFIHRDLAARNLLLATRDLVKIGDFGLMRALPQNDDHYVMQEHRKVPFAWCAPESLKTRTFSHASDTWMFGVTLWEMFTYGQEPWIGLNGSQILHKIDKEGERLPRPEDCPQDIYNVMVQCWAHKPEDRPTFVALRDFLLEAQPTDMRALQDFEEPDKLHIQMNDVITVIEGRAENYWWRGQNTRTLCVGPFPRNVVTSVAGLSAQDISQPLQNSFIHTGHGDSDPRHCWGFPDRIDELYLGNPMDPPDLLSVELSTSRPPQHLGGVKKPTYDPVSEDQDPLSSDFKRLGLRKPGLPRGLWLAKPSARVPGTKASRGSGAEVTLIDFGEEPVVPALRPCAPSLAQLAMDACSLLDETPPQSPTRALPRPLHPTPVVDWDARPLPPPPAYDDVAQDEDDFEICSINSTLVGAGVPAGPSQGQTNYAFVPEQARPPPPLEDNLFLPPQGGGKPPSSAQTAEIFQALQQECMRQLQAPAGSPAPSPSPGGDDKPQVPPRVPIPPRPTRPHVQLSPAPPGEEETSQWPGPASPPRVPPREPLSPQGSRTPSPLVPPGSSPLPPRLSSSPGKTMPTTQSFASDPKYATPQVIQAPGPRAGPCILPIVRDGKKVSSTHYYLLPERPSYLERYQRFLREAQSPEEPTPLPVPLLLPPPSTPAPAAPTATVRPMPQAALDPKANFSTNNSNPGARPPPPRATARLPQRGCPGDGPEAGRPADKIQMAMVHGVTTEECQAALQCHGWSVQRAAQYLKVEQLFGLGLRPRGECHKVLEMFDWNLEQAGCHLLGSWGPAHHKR
Sequence of Serine/threonine-protein kinase PAK 2 (Q13177 whole entry): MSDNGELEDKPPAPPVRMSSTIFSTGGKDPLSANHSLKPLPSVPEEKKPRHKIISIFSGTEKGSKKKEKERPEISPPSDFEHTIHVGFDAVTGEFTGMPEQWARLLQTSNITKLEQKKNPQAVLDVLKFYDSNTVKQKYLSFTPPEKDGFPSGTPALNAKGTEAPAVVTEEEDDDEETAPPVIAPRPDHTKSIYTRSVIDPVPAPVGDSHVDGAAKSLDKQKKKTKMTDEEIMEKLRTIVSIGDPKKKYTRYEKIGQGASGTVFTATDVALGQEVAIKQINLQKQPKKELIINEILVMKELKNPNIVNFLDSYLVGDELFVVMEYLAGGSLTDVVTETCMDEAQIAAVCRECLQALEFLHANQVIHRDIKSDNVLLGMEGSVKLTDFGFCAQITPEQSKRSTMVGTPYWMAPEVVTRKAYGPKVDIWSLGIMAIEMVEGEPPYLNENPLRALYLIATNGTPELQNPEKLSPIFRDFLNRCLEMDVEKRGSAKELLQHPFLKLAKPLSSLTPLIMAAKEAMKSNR
Sequence of Mitogen-activated protein kinase 11 (Q15759 whole entry): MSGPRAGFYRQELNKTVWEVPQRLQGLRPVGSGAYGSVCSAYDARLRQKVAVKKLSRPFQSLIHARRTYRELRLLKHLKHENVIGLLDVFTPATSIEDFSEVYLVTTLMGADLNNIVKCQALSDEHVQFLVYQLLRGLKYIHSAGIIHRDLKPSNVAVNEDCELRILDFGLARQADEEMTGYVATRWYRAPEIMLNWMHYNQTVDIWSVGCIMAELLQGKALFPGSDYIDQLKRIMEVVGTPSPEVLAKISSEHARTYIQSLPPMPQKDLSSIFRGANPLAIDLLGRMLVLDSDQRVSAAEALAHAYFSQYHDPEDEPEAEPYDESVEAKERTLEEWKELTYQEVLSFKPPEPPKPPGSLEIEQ

SMILES	Kd [1]	Kd [2]	Kd [3]	Kd [4]	Kd [5]	Kd [6]	Kd [7]	Kd [8]
CCc1cc2c(cc1N1CCC(N3CCOCC3)CC1)C(C)(C)c1[nH]c3cc(C#N)ccc3c1C2=O [ALECTINIB]	> 30 µM (inactive)	> 30 µM (inactive)	> 30 µM (inactive)	> 30 µM (inactive)	> 30 µM (inactive)	> 30 µM (inactive)	> 30 µM (inactive)	> 30 µM (inactive)
COc1ccc2c(OCc3nnc4ccc(-c5ccccc5)nn34)ccnc2c1 [AMG-208]	> 30 µM (inactive)	> 30 µM (inactive)	> 30 µM (inactive)	> 30 µM (inactive)	> 30 µM (inactive)	> 30 µM (inactive)	> 30 µM (inactive)	> 30 µM (inactive)
S=C(NCc1ccc2c(c1)OCO2)N1CCN(c2ncnc3c2oc2ccccc23)CC1 [AMUVATINIB]	> 30 µM (inactive)	> 30 µM (inactive)	> 30 µM (inactive)	> 30 µM (inactive)	> 30 µM (inactive)	> 30 µM (inactive)	> 30 µM (inactive)	> 30 µM (inactive)
NC[C@@](O)(c1ccc(Cl)cc1)c1ccc(-c2cn[nH]c2)cc1 [AT-13148]	> 30 µM (inactive)	> 30 µM (inactive)	> 30 µM (inactive)	> 30 µM (inactive)	> 30 µM (inactive)	> 30 µM (inactive)	> 30 µM (inactive)	> 30 µM (inactive)
Cc1cc(Nc2nc(N[C@@H](C)c3ncc(F)cn3)ncc2Cl)n[nH]1 [AZD-1480]	> 30 µM (inactive)	> 30 µM (inactive)	0.515 µM (active)	> 30 µM (inactive)	> 30 µM (inactive)	> 30 µM (inactive)	> 30 µM (inactive)	> 30 µM (inactive)
COc1ccc(-c2ccc3ncc4c(c3c2)n(-c2ccc(N3CCNCC3)c(C(F)(F)F)c2)c(=O)n4C)cn1 [BGT-226 FREE BASE]	> 30 µM (inactive)	> 30 µM (inactive)	> 30 µM (inactive)	> 30 µM (inactive)	> 30 µM (inactive)	> 30 µM (inactive)	> 30 µM (inactive)	> 30 µM (inactive)
COc1cccc(Nc2ncnn3ccc(CN4CC[C@@H](N)[C@H](O)C4)c23)c1 [BMS-690514]	> 30 µM (inactive)	> 30 µM (inactive)	0.208 µM (active)	> 30 µM (inactive)	> 30 µM (inactive)	> 30 µM (inactive)	0.546 µM (active)	> 30 µM (inactive)
COc1cc2nccc(Oc3ccc(NC(=O)C4(C(=O)Nc5ccc(F)cc5)CC4)cc3)c2cc1OC [CABOZANTINIB]	> 30 µM (inactive)	> 30 µM (inactive)	> 30 µM (inactive)	> 30 µM (inactive)	> 30 µM (inactive)	> 30 µM (inactive)	> 30 µM (inactive)	> 30 µM (inactive)
c1cc(OCCN2CCCCC2)cc(-c2n[nH]c3ccc(-c4nc[nH]n4)cc23)c1 [CC-401]	> 30 µM (inactive)	> 30 µM (inactive)	> 30 µM (inactive)	> 30 µM (inactive)	> 30 µM (inactive)	> 30 µM (inactive)	> 30 µM (inactive)	> 30 µM (inactive)
CC1(COc2ccc3c(c2)ncn3-c2ccc3cccc(N4CCC(N)CC4)c3n2)COC1 [CRENOLANIB]	> 30 µM (inactive)	> 30 µM (inactive)	> 30 µM (inactive)	> 30 µM (inactive)	> 30 µM (inactive)	> 30 µM (inactive)	> 30 µM (inactive)	> 30 µM (inactive)
CNC(=O)c1ccc(Nc2ncc(C(F)(F)F)c(NCc3nccnc3N(C)S(C)(=O)=O)n2)cc1 [DEFACTINIB]	> 30 µM (inactive)	> 30 µM (inactive)	> 30 µM (inactive)	> 30 µM (inactive)	> 30 µM (inactive)	> 30 µM (inactive)	> 30 µM (inactive)	> 30 µM (inactive)
COc1cc(Nc2ncc(F)c(Nc3ccc4c(n3)N(COP(=O)(O)O)C(=O)C(C)(C)O4)n2)cc(OC)c1OC [FOSTAMATINIB]	> 30 µM (inactive)	> 30 µM (inactive)	> 30 µM (inactive)	> 30 µM (inactive)	> 30 µM (inactive)	> 30 µM (inactive)	> 30 µM (inactive)	> 30 µM (inactive)
O=S(=O)(c1cccc2c(O)nccc12)N1CCCNCC1 [HYDROXYFASUDIL]	> 30 µM (inactive)	> 30 µM (inactive)	> 30 µM (inactive)	> 30 µM (inactive)	> 30 µM (inactive)	> 30 µM (inactive)	> 30 µM (inactive)	> 30 µM (inactive)
C#Cc1cccc(Nc2ncnc3cc4c(cc23)OCCOCCOCCO4)c1 [ICOTINIB]	> 30 µM (inactive)	> 30 µM (inactive)	> 30 µM (inactive)	> 30 µM (inactive)	> 30 µM (inactive)	> 30 µM (inactive)	> 30 µM (inactive)	> 30 µM (inactive)
COc1cc2ncnc3c2cc1OCCCCCN(C)Cc1ccc(Br)cc1N3 [JNJ-26483327]	> 30 µM (inactive)	> 30 µM (inactive)	> 30 µM (inactive)	> 30 µM (inactive)	> 30 µM (inactive)	> 30 µM (inactive)	> 30 µM (inactive)	> 30 µM (inactive)
Cc1ccc(C(=O)Nc2ccc(Oc3cc4cnn(C)c4cc3-c3cn[nH]c3)c(F)c2)c(=O)n1-c1ccc(F)cc1 [MERESTINIB]	> 30 µM (inactive)	> 30 µM (inactive)	> 30 µM (inactive)	> 30 µM (inactive)	> 30 µM (inactive)	> 30 µM (inactive)	> 30 µM (inactive)	> 30 µM (inactive)
O=C(NOC[C@H](O)CO)c1ccc(F)c(F)c1Nc1ccc(I)cc1F [MIRDAMETINIB]	> 30 µM (inactive)	> 30 µM (inactive)	> 30 µM (inactive)	> 30 µM (inactive)	> 30 µM (inactive)	> 30 µM (inactive)	> 30 µM (inactive)	> 30 µM (inactive)
COc1cccc2cc(-c3nc([C@H]4CC[C@H](C(=O)O)CC4)n4ncnc(N)c34)[nH]c12 [OSI-027]	> 30 µM (inactive)	> 30 µM (inactive)	> 30 µM (inactive)	> 30 µM (inactive)	> 30 µM (inactive)	> 30 µM (inactive)	> 30 µM (inactive)	> 30 µM (inactive)
C=CC(=O)Nc1cc(Nc2nccc(-c3cn(C)c4ccccc34)n2)c(OC)cc1N(C)CCN(C)C [OSIMERTINIB]	> 30 µM (inactive)	> 30 µM (inactive)	> 30 µM (inactive)	> 30 µM (inactive)	> 30 µM (inactive)	> 30 µM (inactive)	> 30 µM (inactive)	> 30 µM (inactive)
CC(C)CC(=O)Nc1[nH]nc2c1CN(C(=O)C1CCN(C)CC1)C2(C)C [PHA-793887]	> 30 µM (inactive)	> 30 µM (inactive)	> 30 µM (inactive)	> 30 µM (inactive)	> 30 µM (inactive)	> 30 µM (inactive)	> 30 µM (inactive)	> 30 µM (inactive)
O=C(NC[C@H](O)CO)c1ccncc1Nc1ccc(I)cc1F [PIMASERTIB]	> 30 µM (inactive)	> 30 µM (inactive)	> 30 µM (inactive)	> 30 µM (inactive)	> 30 µM (inactive)	> 30 µM (inactive)	> 30 µM (inactive)	> 30 µM (inactive)
